Data as given in patent publication US10125119B2, “Series of resveratrol-derivative fluorescently labeled molecules and synthesis method thereof” (Hangzhou Normal University, priority 2017, dated 2018).

- melting point: 165 to 166 °C
Compound: COc1cc(/C=C/c2ccc(Oc3nc(Cl)nc(-n4cc(-c5ccc(C(=C(c6ccccc6)c6ccccc6)c6ccccc6)cc5)nn4)n3)cc2)cc(OC)c1 [Product (I)]
